# Assay results published in patent US20020035061A1, “COMPOSITIONS AND METHODS FOR TREATING INFECTIONS USING CATIONIC PEPTIDES ALONE OR IN COMBINATION WITH ANTIBIOTICS” (priority 1996, published 2002).
# Several values for one entry are separate records, joined by “and”; a condition that tells them apart may be missing. Identical values can stand only once. Like-named read-outs stand apart in the source and are kept apart here.
# Tests used:
# Assay in all cases: microbe, parasite or virus in culture
# Format in all cases: cell-based
# [1] = tested on: microorganisms with acquired resistance; conditions: for Peptide MIC: in µg/mL
# [2] = tested on: inherently resistant microorganisms; conditions: for MIC: Staphylococcus aureus, MRSA
# bacterial isolates = conditions: for FIC: combination with Ampicillin
# [3] = Acinetobacter calcoaceticus, read-out: Piperacillin MIC Alone, A. calcoaceticus 2
# [4] = Acinetobacter calcoaceticus, read-out: Piperacillin MIC Alone, A. calcoaceticus 7
# [5] = Enterobacter cloacae, read-out: Piperacillin MIC Alone, E. cloacae 9
# [6] = Enterobacter cloacae, read-out: Piperacillin MIC Alone, E. cloacae 10
# [7] = Enterobacter cloacae, read-out: Piperacillin MIC Alone, E. cloacae 13
# [8] = Enterobacter cloacae, read-out: Piperacillin MIC Alone, E. cloacae 16
# [9] = Enterobacter cloacae, read-out: Piperacillin MIC Alone, E. cloacae 17
# [10] = Escherichia coli, read-out: Piperacillin MIC Alone, E. coli 1
# [11] = Haemophilus influenzae, read-out: Piperacillin MIC Alone, H. influenzae 1
# [12] = Pseudomonas aeruginosa, read-out: Piperacillin MIC Alone, P. aeruginosa 7
# [13] = Pseudomonas aeruginosa, read-out: Piperacillin MIC Alone, P. aeruginosa 15
# [14] = Pseudomonas aeruginosa, read-out: Piperacillin MIC Alone, P. aeruginosa 22
# [15] = Serratia marcescens, read-out: Piperacillin MIC Alone, S. marcescens SB1
# [16] = Stenotrophomonas maltophilia, read-out: Piperacillin MIC Alone, S. maltophilia 2
# [17] = Stenotrophomonas maltophilia, read-out: Piperacillin MIC Alone, S. maltophilia 3
# [18] = Stenotrophomonas maltophilia, read-out: Piperacillin MIC Alone, S. maltophilia 11
# [19] = Stenotrophomonas maltophilia, read-out: Piperacillin MIC Alone, S. maltophilia 14
# [20] = Stenotrophomonas maltophilia, read-out: Piperacillin MIC Alone, S. maltophilia 34
# [21] = Stenotrophomonas maltophilia, read-out: Piperacillin MIC Alone, S. maltophilia 35
compound,measurement,setting,value
COc1cccc(OC)c1C(=O)N[C@@H]1C(=O)N2[C@@H]1SC(C)(C)[C@@H]2C(=O)O [Methicillin],MIC comb. (antibiotic agent),"[1]; S. haemolyticus, with MBI 26",0.25 µg/mL
same,MIC,"[1]; Staphylococcus haemolyticus, read-out: MIC alone (antibiotic agent), S. haemolyticus",64 µg/mL
CCN1CCN(C(=O)N[C@@H](C(=O)N[C@@H]2C(=O)N3[C@@H]2SC(C)(C)[C@@H]3C(=O)O)c2ccccc2)C(=O)C1=O [Piperacillin],Piperacillin MIC + Peptide,"[2]; S. aureus MRSA, peptide MBI 11F3CN",4 µg/mL
same,MIC,"[2]; read-out: Piperacillin MIC + Peptide, S. aureus MRSA, peptide MBI 11B7CN",0.5 µg/mL
same,MIC,"[2]; read-out: Piperacillin MIC + Peptide, S. aureus MRSA, peptide MBI 11D18CN",2 µg/mL
same,MIC,"[2]; read-out: Piperacillin MIC + Peptide, S. aureus MRSA, peptide MBI 11E3CN",2 µg/mL
same,MIC,"[2]; read-out: Piperacillin MIC + Peptide, S. aureus MRSA, peptide MBI 11F3CN",2 µg/mL
same,MIC,"[2]; read-out: Piperacillin MIC + Peptide, S. aureus MRSA, peptide MBI 11F4CN",4 µg/mL
same,MIC,"[2]; read-out: Piperacillin MIC + Peptide, S. aureus MRSA, peptide MBI 11G7CN",0.5 µg/mL
same,MIC,"[2]; read-out: Piperacillin MIC + Peptide, S. aureus MRSA, peptide MBI 21A2",0.5 µg/mL
same,MIC,"[2]; read-out: Piperacillin MIC + Peptide, S. aureus MRSA, peptide MBI 26",0.5 µg/mL
same,MIC,"[2]; read-out: Piperacillin MIC + Peptide, S. aureus MRSA, peptide MBI 29",4 µg/mL
same,MIC,"[2]; read-out: Piperacillin MIC Alone, S. aureus MRSA",128 µg/mL
same,Piperacillin MIC Alone,bacterial isolates; A. calcoaceticus 3,128 µg/mL
same,MIC,bacterial isolates; [3],> 512 µg/mL
same,MIC,"bacterial isolates; Acinetobacter calcoaceticus, read-out: Piperacillin MIC Alone, A. calcoaceticus 3",64 µg/mL
same,MIC,bacterial isolates; [4],32 µg/mL
same,MIC,"bacterial isolates; Acinetobacter calcoaceticus, read-out: Piperacillin MIC Alone, A. calcoaceticus 8",64 µg/mL
same,MIC,"bacterial isolates; Enterobacter cloacae, read-out: Piperacillin MIC Alone, E. cloacae 6",> 128 µg/mL
same,MIC,bacterial isolates; [5],> 128 µg/mL
same,MIC,bacterial isolates; [6],> 128 µg/mL
same,MIC,bacterial isolates; [7],128 µg/mL
same,MIC,bacterial isolates; [8],> 512 µg/mL
same,MIC,bacterial isolates; [9],> 512 µg/mL
same,MIC,bacterial isolates; [10],> 128 µg/mL
same,Piperacillin MIC Alone,bacterial isolates; H. influenzae 1,32 µg/mL
same,MIC,bacterial isolates; [11],64 µg/mL
same,MIC,"bacterial isolates; Haemophilus influenzae, read-out: Piperacillin MIC Alone, H. influenzae 3",0.5 µg/mL
same,MIC,"bacterial isolates; Haemophilus influenzae, read-out: Piperacillin MIC Alone, H. influenzae SB1",0.5 µg/mL
same,Piperacillin MIC Alone,bacterial isolates; P. aeruginosa 7,128 µg/mL
same,Piperacillin MIC Alone,bacterial isolates; P. aeruginosa 41,32 µg/mL
same,MIC,bacterial isolates; [12],> 128 µg/mL
same,MIC,bacterial isolates; [13],> 128 µg/mL
same,MIC,bacterial isolates; [14],> 128 µg/mL
same,MIC,"bacterial isolates; Pseudomonas aeruginosa, read-out: Piperacillin MIC Alone, P. aeruginosa 28",> 512 µg/mL
same,MIC,"bacterial isolates; Pseudomonas aeruginosa, read-out: Piperacillin MIC Alone, P. aeruginosa 29",512 µg/mL
same,MIC,"bacterial isolates; Pseudomonas aeruginosa, read-out: Piperacillin MIC Alone, P. aeruginosa 32",64 µg/mL
same,MIC,"bacterial isolates; Pseudomonas aeruginosa, read-out: Piperacillin MIC Alone, P. aeruginosa 41",64 µg/mL
same,Piperacillin MIC Alone,bacterial isolates; S. aureus 19 MRSA,>128 µg/mL
same,Piperacillin MIC Alone,bacterial isolates; S. aureus SB3MRSA,128 µg/mL
same,MIC,bacterial isolates; [15],64 µg/mL
same,MIC,"bacterial isolates; Staphylococcus aureus, MRSA, read-out: Piperacillin MIC Alone, S. aureus 11 MRSA",> 128 µg/mL
same,MIC,"bacterial isolates; Staphylococcus aureus, MRSA, read-out: Piperacillin MIC Alone, S. aureus 18 MRSA",> 128 µg/mL
same,MIC,"bacterial isolates; Staphylococcus aureus, MRSA, read-out: Piperacillin MIC Alone, S. aureus 19 MRSA",128 µg/mL
same,MIC,"bacterial isolates; Staphylococcus aureus, read-out: Piperacillin MIC Alone, S. aureus SB2MRSA",128 µg/mL
same,MIC,"bacterial isolates; Staphylococcus aureus, read-out: Piperacillin MIC Alone, S. aureus SB3MRSA",> 128 µg/mL
same,MIC,bacterial isolates; [16],64 µg/mL
same,MIC,bacterial isolates; [17],128 µg/mL
same,MIC,"bacterial isolates; Stenotrophomonas maltophilia, read-out: Piperacillin MIC Alone, S. maltophilia 5",> 128 µg/mL
same,MIC,"bacterial isolates; Stenotrophomonas maltophilia, read-out: Piperacillin MIC Alone, S. maltophilia 6",> 128 µg/mL
same,MIC,"bacterial isolates; Stenotrophomonas maltophilia, read-out: Piperacillin MIC Alone, S. maltophilia 9",> 128 µg/mL
same,MIC,bacterial isolates; [18],> 128 µg/mL
same,MIC,"bacterial isolates; Stenotrophomonas maltophilia, read-out: Piperacillin MIC Alone, S. maltophilia 13",> 128 µg/mL
same,MIC,bacterial isolates; [19],128 µg/mL
same,MIC,bacterial isolates; [20],> 512 µg/mL
same,MIC,bacterial isolates; [21],> 256 µg/mL
same,MIC,"bacterial isolates; Stenotrophomonas maltophilia, read-out: Piperacillin MIC Alone, S. maltophilia 38",> 512 µg/mL
same,MIC,"bacterial isolates; Stenotrophomonas maltophilia, read-out: Piperacillin MIC Alone, S. maltophilia 40",> 512 µg/mL
same,MIC,"bacterial isolates; Stenotrophomonas maltophilia, read-out: Piperacillin MIC Alone, S. maltophilia 42",> 512 µg/mL
same,MIC,[1]; [3],> 512 µg/mL
same,MIC,[1]; [4],32 µg/mL
same,MIC,[1]; [5],> 128 µg/mL
same,MIC,[1]; [6],> 128 µg/mL
same,MIC,[1]; [7],128 µg/mL
same,MIC,[1]; [8],> 512 µg/mL
same,MIC,[1]; [9],> 512 µg/mL
same,MIC,"[1]; Enterobacter cloacae, read-out: Piperacillin MIC Alone, E. cloacae 19",64 µg/mL
same,MIC,[1]; [10],> 128 µg/mL
same,Piperacillin MIC Alone,[1]; H. influenzae 1,32 µg/mL
same,MIC,[1]; [11],64 µg/mL
same,Piperacillin MIC Alone,[1]; P. aeruginosa 7,>128 µg/mL
same,Piperacillin MIC Alone,[1]; P. aeruginosa 23,>128 µg/mL and 256 µg/mL
same,MIC comb. (antibiotic agent),"[1]; P. aeruginosa, with MBI 27",64 µg/mL
same,MIC comb. (antibiotic agent),"[1]; P. aeruginosa, with MBI 29",64 µg/mL
same,MIC,"[1]; Pseudomonas aeruginosa, read-out: MIC alone (antibiotic agent), P. aeruginosa",128 µg/mL
same,MIC,[1]; [12],128 µg/mL
same,MIC,"[1]; Pseudomonas aeruginosa, read-out: Piperacillin MIC Alone, P. aeruginosa 12",> 128 µg/mL
same,MIC,[1]; [13],> 128 µg/mL
same,MIC,[1]; [14],> 128 µg/mL
same,MIC,"[1]; Pseudomonas aeruginosa, read-out: Piperacillin MIC Alone, P. aeruginosa 23",128 µg/mL
same,MIC,"[1]; Pseudomonas aeruginosa, read-out: Piperacillin MIC Alone, P. aeruginosa 24",> 512 µg/mL
same,MIC,"[1]; Pseudomonas aeruginosa, read-out: Piperacillin MIC Alone, P. aeruginosa 26",128 µg/mL
same,MIC comb. (antibiotic agent),"[1]; S. aureus, with MBI 27",64 µg/mL
same,Piperacillin MIC Alone,[1]; S. maltophilia 2,64 µg/mL
same,Piperacillin MIC Alone,[1]; S. maltophilia 4,128 µg/mL
same,Piperacillin MIC Alone,[1]; S. maltophilia 35,>512 µg/mL
same,MIC comb. (antibiotic agent),"[1]; S. maltophilia, with MBI 26",16 µg/mL
same,MIC,[1]; [15],64 µg/mL
same,MIC,"[1]; Staphylococcus aureus, read-out: MIC alone (antibiotic agent), S. aureus",128 µg/mL
same,MIC,"[1]; Stenotrophomonas maltophilia, read-out: MIC alone (antibiotic agent), S. maltophilia",> 512 µg/mL
same,MIC,[1]; [16],32 µg/mL
same,MIC,[1]; [17],64 µg/mL
same,MIC,"[1]; Stenotrophomonas maltophilia, read-out: Piperacillin MIC Alone, S. maltophilia 4",64 µg/mL
same,MIC,[1]; [18],32 µg/mL
same,MIC,[1]; [19],128 µg/mL
same,MIC,[1]; [20],> 512 µg/mL
same,MIC,[1]; [21],> 256 µg/mL
same,MIC,"[1]; Stenotrophomonas maltophilia, read-out: Piperacillin MIC Alone, S. maltophilia 41",> 512 µg/mL
GKPRPYSPIPTSPRPIRY [MBI 31],FIC,bacterial isolates; S. epidermidis SE8416,0.52
same,FIC,bacterial isolates; S. epidermidis SH8575,0.27
same,FIC,bacterial isolates; S. haemolyticus SA7797,0.50
same,FIC,bacterial isolates; S. haemolyticus SA7817,0.26
same,FIC,bacterial isolates; S. haemolyticus SA7818,0.52
same,FIC,bacterial isolates; S. haemolyticus SA7834,0.52
same,FIC,bacterial isolates; S. haemolyticus SA7835,0.50
same,FIC,bacterial isolates; S. haemolyticus SH8597,1.00
same,Peptide MIC,"[1]; S. aureus, combination with Erythromycin",0.125
KKWWRRVLKGLSSGPALSNV [MBI 21A10],Peptide MIC,"[1]; S. aureus, combination with Mupirocin",32
